Assay [1] relates to primary OPCs purified by magnetic cell sorting (MACS) from neonatal cortices. As to the kind of experiment: Primary OPC cultures purified by MACS, morphological complexity of OLs. Format: cell-based, mice. Conditions: OPCs treated for two days; compared to vehicle; FIG. 2B. As for the experimental part: Brains were collected from PLPGFP and P4 Swiss mice […] and washed 3 times in PBS 1× (Invitrogen) with 1% of penicillin/streptomycin (Sigma). Cortex and corpus callosum were dissected and dissociated using neural tissue dissociation kit (T) (Miltenyi biotec) and with dissociator (gentleMACS Octo Dissociator, Miltenyi Biotec). OPC magnetic cell sorting was performed using anti-PDGFRα-coupled-beads (CD140a-PDGFRα MicroBead Kit, Miltenyi biotec) and MultiMACS Cell24 Separator Plus (Miltenyi biotec). Cells were collected in PBS and amplified for 2 days in a proliferating medium (with growth factors IGF, EGF, FGF, and PDGFα). Then, 40.000 cells were plated in 24 well plates adherent on coverslips, beforehand coated with poly-ornithine (Merck) diluted in 4 volumes of H2O and washed 3 times. Successively, for 2 days of proliferation and differentiation, medium was added with drugs at 250 nM, 500 nM and 750 nM, and their respective vehicles (DMSO, PBS). Cells were fixed in 4% PBS-paraformaldehyde (thermo fisher) for 10 minutes and washed 3 times in PBS-1×.
For coated-coverslip, blocking was performed in a moist chamber for 30 mn at room temperature (RT) in the blocking buffer (0.05% Triton X-100/10% normal goat serum/PBS). Then, coverslip were incubated for 30 mn with the following primary antibodies at RT. Rat anti-PDGFRα (1:250, BD Biosciences); Mouse anti-CNPase (mlgG1, 1:250; Millipore); Rabbit anti-Btub (1:1000; BABCO); Chicken anti-GFAP (1:500, Avelabs), Mouse anti-MBP (mlgG1, 1:150; Abcam); Rabbit anti-Sox10 (1:1000; Proteintech). Following 3 washing in 0.05% Triton X-100/PBS, coverslips were incubated 30 min at RT in dark with appropriate secondary antibodies conjugated with Alexa Fluor 488, 594 and 647 (1:1000; Molecular Probes or Thermo Fisher) and Dapi (1:5000 from working solution at 5 mg/ml; Life Technologies; D1306). Coverslips were washed 3 times in 0.05% Triton X-100/PBS and mounted with Fluoromount-G (SouthernBiotech).
To evaluate cell specific contribution of the drugs directly in OL differentiation and maturation, we used primary OPCs purified by magnetic cell sorting (MACS) from neonatal cortices (P4).

Assay [2] deals with cerebellar slices explants. As to the kind of experiment: Ex vivo cerebellar organotypic explant culture, differentiation and myelination index. The class given is cell-based, mice. Conditions: 750 nM, three days (7-10 DIV). As for the experimental part: We prepared cerebellar organotypic cultures from newborn (P0) mice. Cerebellar parasagittal slices (350 μm thick) were cut on a McIlwain tissue chopper and transferred onto 30 mm diameter Millipore culture inserts with […] (Millicell, Millipore). Slices were maintained in incubators at 37° C., under a humidified atmosphere containing 5% CO2 in six-well-plates containing 1 mL of slice culture media. This medium includes basal medium eagle (Invitrogen), 25% complete HBSS, 27 mM D-glucose, 100 U/mL penicillin/streptomycin, 1 mM glutamine (Sigma) and 5% horse serum (New Zealand origin, heat inactivated; Invitrogen). Medium was renewed every 2 days until 7 DIV, reaching the appropriate culture periods to study OPC differentiation and myelination. […] Slices were collected and fixed for 1 h at RT in PBS-4% paraformaldehyde, washed 3 times in PBS, and incubated 20 min at 4° C. in Clark's solution (95% ethanol/5% acetic acid), then washed 3 times in PBS 1×.
For ex-vivo cerebellar slices, slices were incubated 20 min at 4° C. in Clark's solution (95% ethanol/5% acetic acid), then washed 3 times in PBS 1×. Then, sections were incubated for 1 hour in a blocking buffer (0.2% Triton X-100/4% bovine serum albumin/4% donkey serum/PBS). Slices were incubated for 2 hours with the following primary antibodies at RT: Goat anti-Sox10 (1:100, R&D Systems); Rabbit anti-Calbindin (1:1000; Swant); Rat anti-MBP (1:200; Abcam); Mouse anti-CC1 (IgG2b; 1:100, Calbiochem). Then slices were washed 3 times in PBS/0.1% Triton X-100 and incubated in blocking buffer (dark, RT) for 2 hours with appropriate secondary antibodies conjugated with Alexa Fluor 488, 594 and 647 (1:1000; Molecular Probes or Thermo Fisher) and Dapi (1:5000 from working solution at 5 mg/ml; Life Technologies; D1306). Finally, slices were washed 3 times in PBS/0.1% Triton X-100 after incubation and mounted in Fluoromount-G (SouthernBiotech).
Then, we firstly performed a simpler and faster experimental model using cerebellar slices explants to identify the best drugs having pro-oligodendrogenenic and pro-myelinating activities in this ex vivo model, to be used in the in vivo analyses. Indeed, this model allowed us to better assess later aspects of OL maturation, myelination, and cytotoxicity in a richer cellular system, also containing immune cells (microglia/macrophages) that are known to influence oligodendrogenesis and (re) myelination. In this model, the start of myelination takes place after 7 days in culture (FIG. 3A). […] We then analyzed the effect in terms of OL numbers (CC1+/Sox10+ cells) and myelination (MBP labeling on CaBP+ Purkinje cell axons), by immunodetection of all four markers in the same sections. We calculated the differentiation index as the ratio of Sox10+ cells being CC1+, and the myelination index as the ratio CaBP+ axons being MBP+. […] On the one hand, we used the adult focal de/remyelination induced by intracerebral injection of […] (LPC) mimicking de/remyelination of MS, and on the other hand, the neonatal chronic hypoxia model, mimicking PTB hypomyelination.

For `CCCCOc1ccc(C(=O)CCN2CCCCC2)cc1.Cl` [Sm5, Dyclonine hydrochloride], the “morphological complexity of OLs (PLP+ cells)” value in assay [1] was “strongly increased”. The “differentiation index (CC1+/Sox10+ OLs number)” value in assay [2] (compared to negative controls, FIG. 3B) was “increased differentiation index”. Moreover, the “myelination process (MBP+/CaBP+), myelination index” value in assay [2] (compared to vehicle, FIG. 3C) is “robust increase”.
